Source: patent US4863493A, “High purity acetylene gas” (Nichigo Acetylene Kabushiki Kaisha, priority 1987, dated 1989)

Assays:
[1] = in DMF, at 25° C.; data from catalogue of NITTO CHEMICAL INDUSTRY CO., LTD.; cited from earlier work
[2] = Acetylene stripped from DMF saturated with acetylene on heating; assay type: physicochemical; conditions: heated to 0° C.
Text: The amount of acetylene dissolved in a solvent depends on the temperature of the solvent. Usually increasing the temperature tends to decrease the solubility. […] As mentioned above, the terminology "stripped acetylene" is intended to refer to "acetylene stripped from a solvent".

acetylene at S.T.P. stripped from 1 l of DMF ([2]; DMF saturated with acetylene at -40° C.) | acetylene at S.T.P. stripped from 1 l of DMF ([2]; DMF saturated with acetylene at -60° C.) | SMILES | Solubility [1] [l/l]
 |  | O=C=O [CO2, carbon dioxide] | 4.5
 |  | [C-]#[O+] [CO] | 0.06
 |  | [HH] [H2, hydrogen] | 0.04
about 238 l | about 382 l | C#C [C2 H2, acetylene] | 31.4
